Assays:
[1] = acute oral toxicity (LD50) in mice; conditions: mouse, in vivo, orally administered
Description: (§1) Since these organogermanium compounds are an expensive and valuable resource, it is desirable that they can be separated and recovered from respective reaction mixtures for reutilization. However, both the saccharides and the organogermanium compounds are organic compounds of fairly high molecular weights and no method for effective separation of the two kinds of the compounds is known.

[2] = acute oral toxicity (LD50) in rats; conditions: rat, in vivo, orally administered
Description: as §1

With `O=C(O)C[CH2][Ge](=[O])[O][Ge](=[O])[CH2]CC(=O)O` [Compound 1, 2-carboxyethylgermanium sesquioxide] the LD50 [1] was ≥ 6000 mg/kg and the LD50 [2] was ≥ 10000 mg/kg.

Reference: patent US5744023A, “Method for separation and recovery of organogermanium compound” (Asai Germanium Research Institute Co., Ltd., priority 1994, dated 1998)
